This passage reports Ki results from patent publication US7879997B2, “Compounds for the treatment of inflammatory disorders” (Schering Corporation, priority 2005, dated 2011).

The assay has as its target T1, purified catalytic domain of recombinant human TACE (rhTACEc) (Homo sapiens, UniProt P78536, N452Q/S266A).
T1 construct: rhTACEc, Residue 215 to 477 with two mutation (S266A and N452Q) and a 6× His tail; 6xHis (C); made in house; host or cells: baculovirus/Hi5 insect cells
Put plainly: TACE kinetic assay, cleavage of internally quenched peptide substrate SPDL-3. Format: biochemical. Here is the method:
TACE activity is determined by a kinetic assay measuring the rate of increase in fluorescent intensity generated by TACE catalyzed cleavage of an internally quenched peptide substrate (SPDL-3). The purified catalytic domain of recombinant human TACE (rhTACEc, Residue 215 to 477 with two mutation (S266A and N452Q) and a 6× His tail) is used in the assay. It is purified from the baculovirus/Hi5 cells expression system using affinity chromatography. The substrate SPDL-3 is an internally quenched peptide (MCA-Pro-Leu-Ala-Gln-Ala-Val-Arg-Ser-Ser-Ser-Dpa-Arg-NH2), with its sequence derived from the pro-TNFα cleavage site. MCA is (7-Methoxycoumarin-4-yl)acetyl. Dpa is N-3-(2,4-Dinitrophenyl)-L-2,3-diaminopropionyl.
A 50 μl assay mixture contains 20 mM HEPES, pH 7.3, 5 mM CaCl2, 100 μM ZnCl2, 2% DMSO, 0.04% Methylcellulose, 30 μM SPDL-3, 70 pM rhTACEc and a test compound. RhTACEc is pre-incubated with the testing compound for 90 min. at 25° C. Reaction is started by addition of the substrate. The fluorescent intensity (excitation at 320 nm, emission at 405 nm) was measured every 45 seconds for 30 min. using a fluorospectrometer (GEMINI XS, Molecular Devices). Rate of enzymatic reaction is shown as Units per second. Effect of a test compound is shown as % of TACE activity in the absence of the compound.

The mark [1] stands for this setting: Specific TACE inhibitory activity (Ki values).
Setting [2] is: TACE inhibitory activity, class letters.

T1 sequence (P78536 215-477 S266A/N452Q): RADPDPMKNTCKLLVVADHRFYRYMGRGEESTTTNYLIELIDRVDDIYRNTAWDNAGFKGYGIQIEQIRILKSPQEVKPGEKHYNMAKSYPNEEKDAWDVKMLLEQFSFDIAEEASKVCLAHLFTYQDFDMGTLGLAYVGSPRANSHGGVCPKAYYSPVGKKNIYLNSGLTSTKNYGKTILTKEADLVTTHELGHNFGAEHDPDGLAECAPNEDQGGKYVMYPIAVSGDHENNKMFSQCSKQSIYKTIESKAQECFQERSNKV

As for `CCOC(=O)[C@@]1(Cc2ccc(OCc3cc(-c4ccccc4)nc4ccccc34)cc2)CNC[C@@H]1C(=O)NO` [Compound A12], the Ki was 59 nM under setting [1] and 20 to 100 nM under setting [2].

Turning to `COC(=O)C(Oc1ccc(C[C@H]2C(=O)N[C@@H]2C(=O)NO)cc1)c1cc(-c2ccccc2)nc2ccccc12` (stereo partly shown) [Compound E3], under setting [2], the inhibition constant Ki was 100 to 1000 nM.

Take `O=C(NO)[C@H]1NC(=O)[C@@H]1Cc1ccc(OCc2cc(-c3ccccc3)nc3ccccc23)cc1` [Compound C5]: the Ki was 55 nM under setting [1] and 20 to 100 nM under setting [2].

As for `O=C1N[C@H](C(=O)NO)[C@@H]1Cc1ccc(OCc2cc(-c3ccccc3)nc3ccccc23)cc1` [Compound B8], the Ki under setting [1] came to 11.7 nM and the Ki under setting [2] was less than 20 nM.

Broadly, the Ki is a measure of affinity in units of concentration, obtained from inhibition or displacement.
